From US20050049295A1, “Process for the preparation of 5-(2-(4-(1,2-benzisothiazol-3-yl)-1piperazinyl) ethyl)-6-chloro-1, 3-dihydro-2h-indol-2-one hydrochloride (ziprasidone hydrochloride) and its intermediate” (DR. REDDY'S LABORATORIES LIMITED, priority 2003, published 2005)

Assays:
Format in all cases: physicochemical
[1] = Stability study with normal packing (without inert atmosphere), 40° C. and 75% relative humidity; details: 40° C./75% RH
Protocol: Stability study with normal packing (without inert atmosphere): Initial and up to two-month stability profile with normal packing was carried out at 40° C. and 75% relative humidity conditions as follow: […]

[2] = Crystal size distribution / mean particle size D[4,3] (Malvern)
Protocol: Ziprasidone hydrochloride (3 Kg) in formic acid (4.5 L) was heated to 60-65° C. for clear dissolution. The solution was filtered to remove any solid particles and the filtrate was cooled to 50-55° C. Ziprasidone hydrochloride (7.5 gm) as seed compound was added to the cooled filtrate. After stirred for 2 hr at 50-55° C., the resulting solution was cooled slowly to 25-35° C. over 1 to 1.5 hour. Ethyl acetate (13.5 L) was added slowly at 25-35° C. over 2 hrs. The resulting mass was stirred for 30-45 min at 25-35° C. The compound was filtered under nitrogen atmosphere. The filtered wet compound was added to acetic acid (10 L) at 25-35° C. under nitrogen atmosphere, and the resulting mixture was stirred for 30-45 min at 25-35° C. The compound was filtered under nitrogen atmosphere, washed with ethyl acetate (10 L), and then dried the compound at 60° C. under reduced pressure for 3-4 hrs and then at 110-120° C. to get the Ziprasidone hydrochloride (2.2 Kg). The product purity by HPLC was analyzed as 99.8%. The crystal size distribution as measured by Malvern was: D10<18.75 micron, D50=114.82 micron, […] and the mean particle size or D[4,3]=123.8 micron.

[3] = Stability study with improved packing (inert atmosphere), 40° C. and 75% relative humidity; details: 40° C./75% RH
Excerpt: (§1) Ziprasidone hydrochloride prepared by the present invention can be packed with a specific process to prevent from hydrating or to improve stability during the storage or transporting of ziprasidone hydrochloride products. This can be achieved by storing the active substance in inert atmosphere, which is technologically and economically simple. The active substance Ziprasidone HCl is stored in polythene bag or containers. The inert atmosphere may be made by nitrogen or argon or mixture thereof. Silica gel or desiccant in air permeable bag may be used optionally along with inert gas in the polythene bag or container.
(§2) Stability study with improved packing (inert atmosphere):
Initial and up to two-month stability profile for the hygroscopic active substance Ziprasidone HCl is shown below:
The stability studies were carried out at 40° C. and 75% relative humidity condition.

[4] = X-ray powder diffractogram of initial and two-month stability samples; details: Cu K alpha-1 radiation
Protocol: X-Ray diffractograms of active substance Ziprasidone HCl (Initial and after two month sample) were recorded on Bruker Axe, DS Advance Powder X-ray Diffractometer with Cu K alpha-1 Radiation source. The characteristic X-ray diffractogram of Ziprasidone hydrochloride was found similar.

[5] = Stability study with improved packing (inert atmosphere), 25° C. and 60% relative humidity; details: 25° C./60% RH
Excerpt: as §1, §2
The stability studies were also carried out at 25° C. and 60% relative humidity condition.

[6] = Example 15, crystal size distribution by Malvern

- Moisture content ([1]; Initial): 0.25% w/w
- Moisture content ([1]; One month): 3.45% w/w
- Moisture content ([1]; Two month): 4.83% w/w
- mean particle size or D[4,3] ([2]; Example 12: reactive crystallization from base in formic acid with HCl in ethyl acetate): 94.1 micron
- mean particle size or D[4,3] ([2]; Example 13: formic acid solvent, ethyl acetate anti-solvent, 30° C.): 101.1 micron
- mean particle size or D[4,3] ([2]; Example 14: seeded cooling crystallization from formic acid): 264.5 micron
- D10 [2, 6]: < 18.75 micron
- D50 [2, 6]: 114.82 micron
- D60 [2, 6]: < 236.5 micron
- mean particle size or D[4,3] ([2]; Example 15: seeded, formic acid / ethyl acetate anti-solvent, acetic acid slurry): 123.8 micron
- mean particle size or D[4,3] ([2]; Example 16: reverse addition of formic acid solution into hot seeded ethyl acetate, 1.5 Kg): 156.2 micron
- D[4,3] ([2]; Example 17: reverse addition of formic acid solution into hot seeded ethyl acetate, 20 Kg): 132.2 micron
- Assay ([3]; Initial): 99.4% w/w
- Moisture content ([3]; Initial): 0.54% w/w
- Total Impurity ([3]; Initial): 0.19% w/w
- Assay ([3]; One month): 99.4% w/w
- Moisture content ([3]; One month): 0.41% w/w
- Total Impurity ([3]; One month): 0.19% w/w
- Assay ([3]; Two month): 99.7% w/w
- Moisture content ([3]; Two month): 0.54% w/w
- Total Impurity ([3]; Two month): 0.20% w/w
- X-ray diffractogram, initial versus after two month sample [4]: similar
- Assay ([5]; Initial): 99.4% w/w
- Moisture content ([5]; Initial): 0.54% w/w
- Total Impurity ([5]; Initial): 0.19% w/w
- Assay ([5]; One month): 99.2% w/w
- Moisture content ([5]; One month): 0.38% w/w
- Total Impurity ([5]; One month): 0.18% w/w
- Assay ([5]; Two month): 99.3% w/w
- Moisture content ([5]; Two month): 0.48% w/w
- Total Impurity ([5]; Two month): 0.21% w/w
Compound: Cl.O=C1Cc2cc(CCN3CCN(c4nsc5ccccc45)CC3)c(Cl)cc2N1 [Ziprasidone hydrochloride, 5-(2-(4-(1,2-benzisothiazol-3-yl)-1-piperazinyl)ethyl)-6-chloro-1,3-dihydro-2H-indol-2-one hydrochloride]
